# Legend:
# HepG2 xenografts = experiment: Antitumor activity in vivo, HepG2 xenograft; set-up: species or system BALB/c-nu nude mice; settings: 5 mg/kg, tail vein injection every other day for two weeks
# Procedure: Four-week-old male BALB/c-nu nude mice (15–20 g) were obtained from the Shanghai SLAC Laboratory Animal Co., Ltd. (Shanghai, China). The animals were maintained under specific pathogen-free conditions with food and water supplied ad libitum in the Laboratory Animal Center of the Second Military Medical University. All animal experiments were carried out in accordance with the Guide for the Care and Use of Laboratory Animals of the National Institutes of Health and were approved by the Committee on the Ethics of Animal Experiments of the Second Military Medical University, China.
# HepG2 cells were harvested and resuspended in PBS. A total of 5 × 10^6 cells were subcutaneously injected into the right flank. Tumor volume was calculated using the following formula: V = (L × W^2)/2, where L is the length and W is the width of the tumor nodules measured with vernier calipers. Once the volume of the tumors reached 75–100 mm^3, the mice were randomly divided into three groups (n = 5). The mice were treated every other day for two weeks with tail vein injections of either vehicle (5% ethanol and 2.5% polyethylene glycol in saline), compound 7, or ISJ (5 mg/kg in the vehicle). Body weights were measured before each drug injection. After the 15th day, the mice were euthanized, and the tumors were isolated, weighed and photographed.
# HepG2 cells = experiment: Matrigel invasion assay; format: cell-based, human; settings: 10 μM, 24 h
# Procedure: Cell migration and invasion potencies were studied using wound healing and Matrigel invasion assays. The wound healing assay was performed by scratching the cell surface with a 10 μL pipette tip. Then, the cells were treated with compound 7 and ISJ (10 μM) and incubated for 24 h before being photographed under a microscope (DMI3000 B, Leica). Wound closure was evaluated using ImageJ software. Invasion through a Matrigel-coated filter was measured in transwell chambers (Corning Costa) as described previously, with minor modifications. Briefly, HepG2 Cells (2 × 10^5/well) were suspended in serum-free medium and added to the upper chamber of the Matrigel plate. FBS (10%) was used as the chemoattractant in the lower chamber. After incubation for 24 h, the non-invading cells were removed from the upper surface of the insert membrane with a cotton swab. The invading cells were fixed with methanol and stained with Giemsa (Sigma). Cells in five randomly selected fields were photographed, and the numbers of cells that crossed the membrane were counted.
# cPKC and nPKC = experiment: Pull-down competition with free ISJ; format: binding, human; settings: free ISJ 20 μM, HepG2 lysates
# Text: (§1) To identify whether ISJ and compound 7 target PKC in cells, we performed pull-down experiments using ISJ- and compound 7-coupled Sepharose beads with HepG2 cell lysates. Endogenous cPKC (PKCα) and nPKC (PKCδ, PKCε and PKCμ) in HepG2 lysates were pulled down by ISJ-coupled CNBr-activated Sepharose 4B beads (Fig. 5a).
# Figure 5 Direct interactions between ISJ and PKC isotypes. (a) Immobilized on CNBr-activated Sepharose 4B beads, ISJ directly bound to cPKC (PKCα) and nPKC (PKCδ, PKCε and PKCμ). (b) HepG2 cell lysates were incubated with ISJ-conjugated Sepharose 4B beads or with DMSO-conjugated control beads in the absence or presence of free ISJ (20 μM), and the bead-captured proteins were subjected to analysis by immunoblotting.
# (§2) The control beads were prepared by incubating the beads with DMSO. Proteins (500 μg) from lysed HepG2 cells were mixed with either the control beads, compound 7-coupled beads, or ISJ-coupled beads (100 μL) in reaction buffer [50 mM Tris (pH 7.5), 5 mM EDTA, 150 mM NaCl, 1 mM DTT, 0.01% NP-40, 2 μg/mL BSA, 1 mM PMSF, 1% protease inhibitor mixture]. After incubation with gentle rocking overnight at 4 °C, the beads were washed 5 times with washing buffer [50 mM Tris (pH 7.5), 5 mM EDTA, 150 mM NaCl, 1 mM DTT, 0.01% NP-40, 1 mM PMSF], and binding was visualized by western blotting.
# SMMC-7721 cells = experiment: Cell proliferation assay (CCK-8), SMMC-7721; format: cell-based, human; settings: mean ± SD, at least three independent experiments
# Procedure: The human HCC cell lines QGY-7703, SMMC-7721 and HepG2 and the liver cell line QSG-7701 were supplied by the Cell Resource Center, Institute of Life Sciences, Chinese Academy of Medical Science. QGY-7703, SMMC-7721 and QSG-7701 cells were cultured in 1640 medium (Gibco), and HepG2 cells were cultured in DMEM medium (Gibco) at 37 °C in moist air supplemented with 5% CO2. All media were supplemented with 10% fetal bovine serum (FBS) and 100 Units/mL of penicillin/streptomycin.
# The cell viability assay was performed as previously reported using a Cell Counting Kit-8 (CCK-8; Dojindo, Kumamoto, Japan)[33][34]. The relative cell viability was presented as % inhibition and calculated using the following formula: […]
# PKCδ = target: T1, PKCδ (Homo sapiens, UniProt Q05655); experiment: Cell-based pull-down assay, PKCδ; format: binding; settings: HepG2 lysates
# T1 construct: Endogenous cPKC (PKCα) and nPKC (PKCδ, PKCε and PKCμ) in HepG2 lysates were pulled down; endogenous in cells; host or cells: HepG2
# Procedure: as §1, §2
# T1 sequence (Q05655 whole entry): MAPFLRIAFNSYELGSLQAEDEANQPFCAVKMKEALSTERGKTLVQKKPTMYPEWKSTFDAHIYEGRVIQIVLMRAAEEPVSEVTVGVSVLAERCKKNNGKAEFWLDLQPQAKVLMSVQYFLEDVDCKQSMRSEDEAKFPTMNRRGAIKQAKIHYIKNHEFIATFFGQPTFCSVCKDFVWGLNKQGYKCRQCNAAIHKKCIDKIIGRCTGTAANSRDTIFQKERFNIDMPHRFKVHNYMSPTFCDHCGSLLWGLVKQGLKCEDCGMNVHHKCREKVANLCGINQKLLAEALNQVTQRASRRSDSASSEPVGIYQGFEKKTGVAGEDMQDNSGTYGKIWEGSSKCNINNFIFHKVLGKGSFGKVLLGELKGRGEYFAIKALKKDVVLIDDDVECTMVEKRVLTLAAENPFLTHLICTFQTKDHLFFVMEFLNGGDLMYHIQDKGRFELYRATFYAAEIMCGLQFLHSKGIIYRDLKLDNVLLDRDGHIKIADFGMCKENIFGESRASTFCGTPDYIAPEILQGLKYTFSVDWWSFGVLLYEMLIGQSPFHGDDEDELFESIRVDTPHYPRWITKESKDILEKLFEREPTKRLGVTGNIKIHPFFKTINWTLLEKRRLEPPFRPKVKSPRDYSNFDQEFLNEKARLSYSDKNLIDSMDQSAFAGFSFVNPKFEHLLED
substance,measurement,setting,value
Isojacareubin [ISJ],reduction of tumor weight compared to controls,HepG2 xenografts,74.1%
same,inhibition of invasiveness compared to control,HepG2 cells,76%
same,amounts of cPKC and nPKC captured by ISJ-coupled 4B beads in presence of free compound,cPKC and nPKC,obvious decline
same,IC50,SMMC-7721 cells,1630 ± 50 nM
same,pull-down of endogenous PKCδ by compound-coupled Sepharose 4B beads,PKCδ,pulled down
